Measured values published in PMC12467033, “Exploring the Inhibitory Potential of Six Porphyrin Compounds Against α-Amylase and α-Glucosidase Linked to Diabetes” (Biomolecules, 2025).
“And” between values parts separate entries of the source, which are not always exact repeats. Equal entries are not always repeated. Where two headings read alike, the source gives them in different places.

Key:
[1] = molecular target: T1, α-amylase (Sus scrofa, UniProt P00690); assay: Three-dimensional fluorescence spectroscopy of α-amylase complexes; settings: 298 K; TAPP 2.5, THPP 10, TCPP 10, Fe–TCPP 12.5, Ni–TCPP 17.5, Cu–TCPP 10 μg/mL
T1 sequence (P00690 16-511): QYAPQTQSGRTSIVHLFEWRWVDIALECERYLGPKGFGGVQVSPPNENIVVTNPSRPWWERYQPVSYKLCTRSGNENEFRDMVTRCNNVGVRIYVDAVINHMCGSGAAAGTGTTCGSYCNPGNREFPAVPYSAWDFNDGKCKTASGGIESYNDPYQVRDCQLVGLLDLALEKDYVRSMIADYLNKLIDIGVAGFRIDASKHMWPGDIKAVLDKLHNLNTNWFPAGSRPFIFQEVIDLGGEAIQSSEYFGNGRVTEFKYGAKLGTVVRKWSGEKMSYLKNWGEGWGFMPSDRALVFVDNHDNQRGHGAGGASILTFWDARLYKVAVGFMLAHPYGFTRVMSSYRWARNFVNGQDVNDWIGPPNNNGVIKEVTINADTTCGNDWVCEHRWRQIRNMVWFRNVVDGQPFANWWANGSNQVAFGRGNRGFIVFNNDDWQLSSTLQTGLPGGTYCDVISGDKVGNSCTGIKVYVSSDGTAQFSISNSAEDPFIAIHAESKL
Procedure: At 298 K, with excitation wavelengths ranging from 200 to 600 nm (2 nm increments) and emission wavelengths from 200 to 600 nm, the influence of small molecules on enzyme conformation was assessed by examining peaks in 3D fluorescence spectra [41].

[2] = molecular target: T1, α-amylase; assay: FTIR secondary structure analysis of α-AMY complexes; settings: enzyme–porphyrin molar ratio 1:2, amide I band
Text: (§1) A molar ratio of 1:2 (α-amylase/α-glucosidase)–porphyrin solution was placed in a cryocentrifugal concentrator and the dried solid sample was mixed with dry KBr and measured using a Nicolet IS-50 FTIR Spectrometer (ThermoFisher, Waltham, MA, USA) with a scanning range of 4000–400 cm^−1 and a resolution of 4 cm^−1. The overlapping peaks in the amide I band (1700–1600 cm^−1) were further analyzed into multiple feature sub-peaks, and quantitative analysis of the relative content of various secondary structures in proteins using curve fitting methods was performed.

[3] = molecular target: T2, α-glucosidase (Saccharomyces cerevisiae, UniProt P53341); assay: Fluorescence quenching, binding and thermodynamics with α-glucosidase
T2 sequence (P53341 whole entry): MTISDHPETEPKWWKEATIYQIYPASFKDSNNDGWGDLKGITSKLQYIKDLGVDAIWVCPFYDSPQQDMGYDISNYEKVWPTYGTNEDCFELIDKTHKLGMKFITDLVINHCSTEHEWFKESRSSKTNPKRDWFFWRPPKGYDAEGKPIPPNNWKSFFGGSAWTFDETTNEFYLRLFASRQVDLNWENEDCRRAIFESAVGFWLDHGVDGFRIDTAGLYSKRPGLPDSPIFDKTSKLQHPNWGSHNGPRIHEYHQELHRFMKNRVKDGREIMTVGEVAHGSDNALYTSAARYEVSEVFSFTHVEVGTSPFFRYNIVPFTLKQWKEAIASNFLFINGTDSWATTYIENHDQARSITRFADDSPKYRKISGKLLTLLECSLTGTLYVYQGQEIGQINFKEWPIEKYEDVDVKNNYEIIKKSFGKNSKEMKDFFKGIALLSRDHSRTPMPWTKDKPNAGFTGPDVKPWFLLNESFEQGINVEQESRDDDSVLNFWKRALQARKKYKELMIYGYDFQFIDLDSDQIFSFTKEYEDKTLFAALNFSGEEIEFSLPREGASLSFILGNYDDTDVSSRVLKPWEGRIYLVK
Procedure: In the α-amylase experiment, a series of porphyrins and amylase (200 U/L) were mixed in a volume ratio of 1:1. In the α-glucosidase experiment, the glucosidase concentration was 400 U/L, mixed in a volume ratio of 1:1; the samples were maintained at three different temperatures (298, 304, and 310 K) for 30 min, with excitation at 280 nm and emission scanning from 300 to 500 nm.
The Stern–Volmer equation [35] was adopted to determine the quenching mechanisms between six porphyrin compounds and both enzymes in the experimental group, with Formula (6):(6) F0/F=1+Ksv[Q]=1+Kqτ0[Q]
The Stern–Volmer equation was adapted based on experimental data to more accurately characterize the quenching behavior [36], with Formula (7):(7) F0/F=e^Ksv[Q]=e^Kqτ0[Q]
In the formula, the fluorescence quenching ratio was calculated as F0/F, where F0 corresponds to the emission intensity of pure α-amylase solution (control) and F denotes the intensity measured after the incremental addition of porphyrin ligands. KSV and Kq denote the Stern–Volmer quenching constant and the bimolecular quenching rate constant, respectively, τ0 (10^−8 s) is the average fluorescence lifetime of the fluorophore in the absence of quencher, and [Q] indicates the concentration of porphyrin compounds.
Due to the presence of an internal filtration effect, a decrease in the fluorescence intensity of the system may occur. Therefore, all fluorescence data were corrected using Formula (8) to eliminate the internal filtration effect.(8) Fcor=Fobse^(Aex+Aem)/2
The evaluation of the interaction forces between porphyrin compounds and the two enzymes can be achieved by calculating thermodynamic parameters. When both ΔH^0 and ΔS^0 are positive, the predominant interaction force is hydrophobic. When both ΔH^0 and ΔS^0 are negative, the main forces are hydrogen bonding and van der Waals forces. When ΔH^0 < 0 and ΔS^0 > 0, the primary interaction is electrostatic attraction.
The thermodynamic parameters were calculated using Formulas (9) and (10), and then the Van’t Hoff plot for the interactions between the porphyrin compounds and the two enzymes was generated by plotting lnKa on the Y-axis versus 1/T on the X-axis.(9) lnKa=−ΔH^0/RT+ΔS^0/R (10) ΔG^0=ΔH^0−TΔS^0=−RTlnKa

[4] = molecular target: T2, α-glucosidase; type: biochemical
Text: (§2) In the experiment, the concentration of the fixed substrate Gal-G2-α-CNP/pNPG solution was 5 mmol/L, and the concentrations of the two enzymes (100, 200, 300, 400 U/L) were used to determine the effect of different concentrations of porphyrins on enzyme activity. The concentration of the enzyme was 200 U/L, and the concentration of the substrate Gal-G2-α-CNP/pNPG solution (2.5, 5, 7.5, 10 mmol/L) was used to determine the effect of different concentrations of porphyrins on the enzyme-catalyzed substrate activity.
(§3) Upon identifying the type of inhibition, the kinetic equations vary for different inhibition types.
(§4) In the formula, v, Vmax, Km, Ki, and Kis represent the reaction rate, maximum reaction rate, Michaelis constant, and free enzyme inhibition constant, respectively, and the binding enzyme inhibition constant. [S] denotes the substrate concentration. [I] denotes the inhibitor concentration.

[5] = molecular target: T1, α-amylase; assay: Mode of α-AMY inhibition (reversibility, Lineweaver–Burk kinetics); type: biochemical
Text: as §2, §3, §4

[6] = molecular target: T2, α-glucosidase; assay: FTIR secondary structure analysis of α-GLU complexes; settings: enzyme–porphyrin molar ratio 1:2, amide I band
Text: as §1

[7] = enzyme 100–400 U/L, substrate 5 mmol/L
[8] = free enzyme inhibition constant

O=C(O)c1ccc(-c2c3nc(c(-c4ccc(C(=O)O)cc4)c4ccc([nH]4)c(-c4ccc(C(=O)O)cc4)c4nc(c(-c5ccc(C(=O)O)cc5)c5ccc2[nH]5)C=C4)C=C3)cc1.[Ni+2] [Ni–TCPP, nickel (II) meso-tetra (4-carboxyphenyl) porphine]
Peak 1 Fluorescence Intensity [1]: 225.2 | Peak 2 Fluorescence Intensity [1]: 9.012 | Random Coil [2]: 21.40 ± 0.05% | α-Helix [2]: 20.76 ± 0.06% | β-Antiparallel [2]: 10.30 ± 0.03% | β-Sheet [2]: 11.20 ± 0.02% | β-Turn [2]: 36.33 ± 0.13% | binding constants K ([3]; 310 K): (1.83 ± 0.01) × 10^5 L·mol^−1 | quenching mechanism of α-glucosidase fluorescence ([3]; Stern–Volmer plots, 298–310 K): static quenching | Ka (binding constant) ([3]; T 298 K): 2.34 ± 0.04 ×10^5 L/mol | Kq ([3]; T 298 K): 17.73 ± 0.15 ×10^12 L/mol/s | Ksv ([3]; T 298 K): 17.73 ± 0.15 ×10^4 L/mol | n (number of binding sites) ([3]; T 298 K): 1.03 | ΔG^0 ([3]; T 298 K): -7.321 ± 0.0311 kcal/mol | Ka (binding constant) ([3]; T 304 K): 2.09 ± 0.02 ×10^5 L/mol | Kq ([3]; T 304 K): 14.23 ± 0.09 ×10^12 L/mol/s | Ksv ([3]; T 304 K): 14.23 ± 0.09 ×10^4 L/mol | n (number of binding sites) ([3]; T 304 K): 1.04 | ΔG^0 ([3]; T 304 K): -7.4 ± 0.014 kcal/mol | Ka (binding constant) ([3]; T 310 K): 1.83 ± 0.01 ×10^5 L/mol | Kq ([3]; T 310 K): 12.31 ± 0.08 ×10^12 L/mol/s | Ksv ([3]; T 310 K): 12.31 ± 0.08 ×10^4 L/mol | n (number of binding sites) ([3]; T 310 K): 1.03 | ΔG^0 ([3]; T 310 K): -7.464 ± 0.017 kcal/mol | ΔH^0 ([3]; Van’t Hoff, 298–310 K): -3.786 ± 0.012 kcal/mol | ΔS^0 ([3]; Van’t Hoff, 298–310 K): 49.67 ± 0.08 J/mol/k | Km [4]: 3.0491 ± 0.0776 µg/mL and 3.3243 ± 0.0748 µg/mL and 3.5279 ± 0.0812 µg/mL and 3.8090 ± 0.1419 µg/mL and 4.1248 ± 0.0704 µg/mL | Vmax ([4]; C 5 μg/mL): 0.1036 ± 0.0026 ΔOD/min | Vmax ([4]; C 7.5 μg/mL): 0.0909 ± 0.0020 ΔOD/min | Vmax ([4]; C 10 μg/mL): 0.0791 ± 0.0018 ΔOD/min | Vmax ([4]; C 15 μg/mL): 0.0628 ± 0.0023 ΔOD/min | Vmax ([4]; C 25 μg/mL): 0.0444 ± 0.0008 ΔOD/min | type of inhibition of α-glucosidase ([4]; Lineweaver–Burk plots): mixed type | reversibility of inhibition of α-glucosidase [4, 7]: reversible inhibition | Kis ([4]; enzyme–substrate complex inhibition constant): 9.2257 ± 0.0312 µg/mL | Ki [4, 8]: 3.8703 ± 0.0201 µg/mL | Km ([5]; C 40 μg/mL): 3.6229 ± 0.1082 µg/mL | Vmax ([5]; C 40 μg/mL): 0.1456 ± 0.0043 ΔOD/min | Km ([5]; C 80 μg/mL): 3.6134 ± 0.1167 µg/mL | Vmax ([5]; C 80 μg/mL): 0.1238 ± 0.0040 ΔOD/min | Km ([5]; C 120 μg/mL): 3.6072 ± 0.0593 µg/mL | Vmax ([5]; C 120 μg/mL): 0.1032 ± 0.0017 ΔOD/min | Km ([5]; C 160 μg/mL): 3.6027 ± 0.1141 µg/mL | Vmax ([5]; C 160 μg/mL): 0.0901 ± 0.0029 ΔOD/min | Km ([5]; C 200 μg/mL): 3.5987 ± 0.0938 µg/mL | Vmax ([5]; C 200 μg/mL): 0.0799 ± 0.0021 ΔOD/min | type of inhibition of α-amylase ([5]; Lineweaver–Burk plots): non-competitive inhibition | reversibility of inhibition of α-amylase [5, 7]: reversible inhibition | Ki [5, 8]: 157.9542 ± 0.1375 µg/mL | Random Coil [6]: 26.76 ± 0.07% | α-Helix [6]: 19.75 ± 0.07% | β-Antiparallel [6]: 1.88 ± 0.01% | β-Sheet [6]: 13.68 ± 0.04% | β-Turn [6]: 37.94 ± 0.10%
